Where “and” joins values, the source holds several entries; their conditions need not be identical. Identical values can stand only once.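 How tested: cells in 96-well plates exposed to compound for 48 hours at five concentrations. GI50 is the concentration that inhibits growth by half. TGI is the concentration that stops growth completely.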
Experiments:
Experiment in all cases: inhibition of tumour cell growth, NCI panel, 48 h
[1] = system: HCT-116 colon
[2] = system: MDA-MB-231 breast
[3] = system: NCI-H522 lung
[4] = system: SK-MEL-28 melanoma
[5] = system: SNB-19 CNS
[6] = system: SR leukemia
[7] = system: U251 CNS
[8] = system: UACC-62 melanoma
[9] = system: UO-31 renal
[10] = system: HOP-92 NSCLC

Row | Compound | GI50 [1] [µM] | TGI [1] [µM] | GI50 [2] [µM] | TGI [2] [µM] | GI50 [3] [µM] | TGI [3] | GI50 [4] [µM] | TGI [4] [µM] | GI50 [5] [µM] | TGI [5] [µM] | GI50 [6] [µM] | TGI [6] [µM] | GI50 [7] [µM] | TGI [7] [µM] | GI50 [8] [µM] | TGI [8] [µM] | GI50 [9] [µM] | TGI [9] [µM] | TGI [10] [µM] | GI50 [10] [µM]
1 | FC(F)(F)c1nc(N2CCCC2)ncc1-c1nnnn1-c1ccc(Cl)cc1 | 23 | 54.6 | 24.6 | > 100 | 10.2 | 59 µM | 20 | 74.8 | 30.9 | > 100 | 2.53 | 6.24 | 33 | > 100 | 7.49 | > 100 | 16.8 | > 100 |  | 
2 | Cc1ccc(S(=O)(=O)N[C@H](C(=O)O)c2ccccc2)cc1 |  |  |  |  |  | > 100 µM |  | > 100 |  | > 100 |  |  |  | > 100 |  | > 100 |  | > 100 | > 100 | 
3 | Cc1ccc(NC(=O)c2cc3cc(N=Nc4ccc(Br)cc4)ccc3oc2=O)cc1 |  | > 100 |  |  |  | > 100 µM |  | > 100 |  | > 100 |  | > 100 |  | > 100 |  |  |  |  | > 100 | 
4 | N#Cc1ccccc1NC(=O)/C(=N\N)C(C(=O)c1ccncc1)C1OC(=O)c2ccccc21 (stereo not drawn) |  | > 100 |  |  |  | > 100 µM |  | > 100 |  | > 100 |  | > 100 |  | > 100 |  | > 100 |  | > 100 | > 100 | 
5 | CC1CC[C@]2(C(=O)O)CCC3(COC(=O)/C=C\c4ccc(O)cc4)C(=CCC4[C@@]5(C)CC[C@H](O)C(C)(C)C5CC[C@]43C)[C@@H]2[C@H]1C (stereo partly drawn) |  | 37 |  |  |  | 44.6 µM |  | 35.5 |  | 32.7 |  | 76.1 |  | 23.4 |  | 32.6 |  | 32.1 |  | 
6 | COc1cc(C2c3[nH]c4ccccc4c3C[C@H]3COC(=O)N23)cc(OC)c1OC (stereo partly drawn) |  |  |  |  | < 0.01 | 0.04 µM and < 0.01 µM |  |  |  | 3.16 |  |  | < 0.01 | > 100 | < 0.01 | > 100 | < 0.01 | 50.1 | > 100 | 0.0184
7 | N=C(N)c1ccc(OCc2cccc(COc3ccc(C(=N)N)cc3)c2)cc1 | 5.22 | 16.9 | 4.09 | 15.9 | 16 | > 100 µM | 5.15 | 29.1 | 5.75 | > 100 |  |  | 3.73 | 17.2 | 2.17 | 7.99 | 42.1 | > 100 | 9.32 | 3.01
8 | Cc1ccccc1NC(=O)C(=O)C(C#N)c1ccc(Cl)cc1 (stereo not drawn) |  | > 100 |  |  |  | > 100 µM |  | > 100 |  | > 100 |  |  |  | > 100 |  | > 100 |  | > 100 | > 100 | 
9 | CN1C(=O)CC(c2cccc(C3CC(=O)N(C)C3=O)n2)C1=O (stereo not drawn) |  | > 100 |  |  |  | > 100 µM |  | > 100 |  | > 100 |  | > 100 |  | > 100 |  | > 100 |  | > 100 | > 100 | 
10 | COc1ccccc1/C=C(\C#N)c1ccccc1 |  | > 100 |  |  |  | 44.7 µM |  | > 100 |  |  |  | 48.8 |  | > 100 |  | > 100 |  | 97.5 | > 100 | 

From PubChem BioAssay (NCI)
